Measured values from US12593845B2 (priority 2019, dated 2026).

system: Aspergillus niger; test: Antimicrobial test against Aspergillus niger; assay type: cell-based; conditions: 96 h, Vogel medium, 25° C., 4 days in the dark, turbidity at 405 nm, read-out: growth inhibition rate
Experimental: Spores of Aspergillus niger were added to and dispersed in a Vogel medium, and a dihydropyrimidine compound dissolved in dimethyl sulfoxide was added and mixed thereto at 25 ppm. The resulting solution was dispensed onto a 96-well microplate and cultivated in the dark at 25° C. for 4 days.
After the cultivation, the turbidity at a wavelength of 405 nm was measured by a microplate reader and compared with that in the untreated case to determine the growth inhibition of Aspergillus niger (%) was determined.

Compound | inhibition at 25 ppm
COc1ccccc1C(O)Cn1cc(/C(C)=N/OC(C)C)c(=O)n(C[C@H](CC(C)C)NC(=O)C(C)C)c1=O (some centres unmarked) [C-43] | ≥ 50%
CC[C@@H](Cn1c(=O)c(/C(C)=N/OC(C)C)cn(CC(O)c2cc(F)ccc2OC)c1=O)NC(=O)C(C)(C)C (some centres unmarked) [C-58] | ≥ 50%
COc1ccc(F)cc1C(O)Cn1cc(/C(C)=N/OC(C)C)c(=O)n(C[C@H](CC(C)C)NC(=O)N(C)C)c1=O (some centres unmarked) [C-60] | ≥ 50%
CCC(=O)N[C@@H](CC(C)C)Cn1c(=O)c(/C(C)=N/OC(C)C)cn(CC(O)c2cc(F)ccc2OC)c1=O (some centres unmarked) [C-62] | ≥ 50%
COc1ccc(F)cc1C(O)Cn1cc(/C(C)=N/OC(C)C)c(=O)n(C[C@@H](NC(=S)N(C)C)C(C)C)c1=O (some centres unmarked) [C-63] | ≥ 50%
COc1ccc(F)cc1C(O)Cn1cc(/C(C)=N/OC(C)C)c(=O)n(C[C@@H](NC(=O)N(C)C)C(C)C)c1=O (some centres unmarked) [C-69] | ≥ 50%
COc1ccc(F)cc1C(O)Cn1cc(/C(C)=N/OC(C)C)c(=O)n(C[C@@H](NC(=O)CSC)C(C)C)c1=O (some centres unmarked) [C-75] | ≥ 50%
COc1ccccc1C(O)Cn1cc(/C(C)=N/OC(C)C)c(=O)n(C[C@@H](NC(=O)N(C)C)C(C)C)c1=O (some centres unmarked) [C-77] | ≥ 50%
COc1ccccc1C(O)Cn1cc(/C(C)=N/OC(C)C)c(=O)n(C[C@@H](NC(=O)C2CCC2)C(C)C)c1=O (some centres unmarked) [C-79] | ≥ 50%
COc1ccc(F)cc1C(O)Cn1cc(/C(C)=N/OC(C)C)c(=O)n(C[C@@H](NC(=O)C(Cl)Cl)C(C)C)c1=O (some centres unmarked) [C-81] | ≥ 50%
COc1ccc(F)cc1C(O)Cn1cc(/C(C)=N/OC(C)C)c(=O)n(C[C@@H](NC(=O)C2CC2)C(C)C)c1=O (some centres unmarked) [C-103] | ≥ 50%
C=CC(=O)N[C@H](Cn1c(=O)c(/C(C)=N/OC(C)C)cn(CC(O)c2cc(F)ccc2OC)c1=O)C(C)C (some centres unmarked) [C-109] | ≥ 50%
COc1ccc(F)cc1C(O)Cn1cc(/C(C)=N/OC(C)C)c(=O)n(C[C@H](C)NC(=O)CC(C)C)c1=O (some centres unmarked) [C-124] | ≥ 50%
COc1ccc(F)cc1C(O)Cn1cc(/C(C)=N/OC(C)C)c(=O)n(C[C@H](C)NC(=O)C(C)(C)C)c1=O (some centres unmarked) [C-126] | ≥ 50%
COc1ccccc1C(O)Cn1cc(/C(C)=N/OC(C)C)c(=O)n(C[C@@H](NC(=O)C(C)(C)C)C(C)C)c1=O (some centres unmarked) [C-129] | ≥ 50%
CCC(=O)N[C@@H](C)Cn1c(=O)c(/C(C)=N/OC(C)C)cn(CC(O)c2cc(F)ccc2OC)c1=O (some centres unmarked) [C-137] | ≥ 50%

Compound | inhibition at 25 ppm
COc1ccc(F)cc1C(O)Cn1cc(/C(C)=N/OC(C)C)c(=O)n(C[C@H](C)NC(=O)C2CC2)c1=O (some centres unmarked) [C-141] | ≥ 50%
COc1ccc(F)cc1C(O)Cn1cc(/C(C)=N/OC(C)C)c(=O)n(C[C@H](Cc2ccccc2)NC(=O)C(C)C)c1=O (some centres unmarked) [C-168] | ≥ 50%
CC/C(=N\OC(C)C)c1cn(CC(O)c2cc(F)ccc2OC)c(=O)n(C[C@H](C)NC(=O)C(C)C)c1=O (some centres unmarked) [C-172] | ≥ 50%
COC(=O)N[C@@H](C)Cn1c(=O)c(/C(C)=N/OC(C)C)cn(CC(O)c2cc(F)ccc2OC)c1=O (some centres unmarked) [C-186] | ≥ 50%
COc1ccc(F)cc1C(O)Cn1cc(/C(C)=N/OC(C)C)c(=O)n(C[C@H](C)NC(=O)OC(C)C)c1=O (some centres unmarked) [C-188] | ≥ 50%
C/C(=N\OC(C)C)c1cn(CC(O)c2ccccc2OC(F)(F)F)c(=O)n(C[C@H](C)NC(=O)C(C)C)c1=O (stereo partly drawn) [C-194, N-((2S)-1-(3-(2-hydroxy-2-(2-(trifluoromethoxy)phenyl)ethyl)-5-((E)-1-(isopropoxyimino)ethyl)-2,6-dioxo-3,6-dihydropyrimidin-1(2H)-yl)propan-2-yl)isobutyramide] | ≥ 50%
COc1ccc(F)cc1C(O)Cn1cc(/C(C)=N/OC(C)C)c(=O)n(C[C@@H](NC(=O)C(C)C)c2ccccc2)c1=O (some centres unmarked) [C-202] | ≥ 50%
C/C(=N\OC(C)C)c1cn(CC(O)c2ccccc2C)c(=O)n(C[C@H](C)NC(=O)C(C)C)c1=O (some centres unmarked) [C-213] | ≥ 50%
C=C(C)C(=O)N1CCC[C@H]1Cn1c(=O)c(/C(C)=N/OC(C)C)cn(CC(O)c2cc(F)ccc2OC)c1=O (stereo partly drawn) [D-11] | ≥ 50%
COc1ccc(F)cc1C(O)Cn1cc(/C(C)=N/OC(C)C)c(=O)n(C[C@@H]2CCCN2C(=O)C(C)C)c1=O (stereo partly drawn) [D-20] | ≥ 50%
COc1ccc(F)cc1C(O)Cn1cc(/C(C)=N/OC(C)C)c(=O)n(C[C@@H]2CCCN2C(=O)N(C)C)c1=O (stereo partly drawn) [D-22] | ≥ 50%
COc1ccc(Cn2c(=O)c(/C(C)=N/OC(C)C)cn(CC(O)c3cc(F)ccc3OC)c2=O)cc1 [D-52] | ≥ 50%
COc1cccc(Cn2c(=O)c(/C(C)=N/OC(C)C)cn(CC(O)c3cc(F)ccc3OC)c2=O)c1 [D-53] | ≥ 50%
COc1ccccc1Cn1c(=O)c(/C(C)=N/OC(C)C)cn(CC(O)c2cc(F)ccc2OC)c1=O [D-54] | ≥ 50%
COc1ccc(F)cc1C(O)Cn1cc(/C(C)=N/OC(C)C)c(=O)n(Cc2ccccn2)c1=O [D-56] | ≥ 50%

system: apple scab pathogen (Venturia inaequalis); test: Apple scab control test; assay type: in vivo; conditions: 336 h, 125 ppm drug solution sprayed onto apple seedlings (Orin), lesion area ratio 2 weeks after inoculation
Experimental: 5 parts by weight of the dihydropyrimidine compound of the present invention, 93.5 parts by weight of N,N-dimethylformamide, and 1.5 parts by weight of polyoxyethylene sorbitan monolaurate (TWEEN® 20) were mixed and dissolved to obtain an emulsion (I) including 5% of an active ingredient.
The control value was calculated by the following expression. Control value (%)=100−{lesion area ratio in treated group/lesion area ratio in untreated group}×100 [Expression 1]
Water was added to the emulsion (I) such that the concentration of the dihydropyrimidine compound reached 125 ppm to dissolve the emulsion, and a drug solution was obtained. Subsequently, the drug solution was sprayed onto apple seedlings (variety: “Orin”, leaf stage: 3 to 4) cultivated in seedling pots. After air drying, the seedlings were inoculated with conidiospores of an apple scab pathogen (Venturia inaequalis) (treated group). As a control, apple seedlings that were not sprayed with the drug solution were inoculated in the same manner (untreated group). The seedlings were left to stand in a humidified room at 20° C. using a 12 hour light/dark cycle.
On the day 2 weeks after the inoculation, the leaves of the apple seedlings were visually observed to determine the lesion area ratio, and the control value was calculated.

Compound | pest or weed control at 125 ppm
CCOC(=O)C(C)(C)Cn1c(=O)c(/C(C)=N/OC(C)C)cn(CC(=O)c2cc(F)ccc2OC)c1=O [A-3] | ≥ 75%
C=CCON=Cc1cn(CC(OCCC#N)c2cc(F)ccc2OC)c(=O)n(C(C)C(=O)NC(C)C)c1=O (centres unmarked) [A-5] | ≥ 75%
CON=Cc1cn(CC(OCCC#N)c2cc(F)ccc2OC)c(=O)n(C(C)C(=O)NC(C)C)c1=O (centres unmarked) [A-6] | ≥ 75%
CCON=Cc1cn(CC(O)c2cc(F)ccc2OC)c(=O)n(CC(C)(C)C(=O)NC(C)C)c1=O (centres unmarked) [A-8] | ≥ 75%
COc1ccc(F)cc1C(Cn1cc(C=NOCC2CC2)c(=O)n(C(C)C(=O)NC(C)C)c1=O)OCCC#N (centres unmarked) [A-9] | ≥ 75%
CCON=Cc1cn(CC(OCCC#N)c2cc(F)ccc2OC)c(=O)n(CC(C)(C)C(=O)OCC)c1=O (centres unmarked) [A-13] | ≥ 75%
CCON=Cc1cn(CC(O)c2cc(F)ccc2OC)c(=O)n(CC(C)(C)C(=O)OCC)c1=O (centres unmarked) [A-15] | ≥ 75%
CCON=Cc1cn(CC(OCCC#N)c2cc(F)ccc2OC)c(=O)n(CCNC(=O)c2ccc(F)cc2)c1=O (centres unmarked) [A-16] | ≥ 75%
CCON=Cc1cn(CC(O)c2cc(F)ccc2OC)c(=O)n(CCNC(=O)OC(C)(C)C)c1=O (centres unmarked) [A-19] | ≥ 75%
CCON=Cc1cn(CC(=O)c2cc(F)ccc2OC)c(=O)n(CCNC(=O)OC(C)(C)C)c1=O [A-20] | ≥ 75%
C#CCON=Cc1cn(CC(OCCC#N)c2cc(F)ccc2OC)c(=O)n(C(C)C(=O)NC(C)C)c1=O (centres unmarked) [A-21] | ≥ 75%
COc1ccc(F)cc1C(Cn1cc(C=NOCC(F)(F)F)c(=O)n(C(C)C(=O)NC(C)C)c1=O)OCCC#N (centres unmarked) [A-22] | ≥ 75%
CCO/N=C(\C)c1cn(CC(=O)c2cc(F)ccc2OC)c(=O)n(CC(C)(C)C(=O)NC(C)C)c1=O [A-26] | ≥ 75%
CCO/N=C(\C)c1cn(CC(=O)c2cc(F)ccc2OC)c(=O)n(CCNC(=O)C(C)C)c1=O [A-36, N-(2-(5-(1-(ethoxyimino)ethyl)-3-(2-(5-fluoro-2-methoxyphenyl)-2-oxoethyl)-2,6-dioxo-3,6-dihydropyrimidin-1(2H)-yl)ethyl)isobutyramide] | ≥ 75%
COc1cccc(C(O)Cn2cc(/C(C)=N/OC(C)C)c(=O)n(C[C@H](C)NC(=O)C(C)C)c2=O)c1 (some centres unmarked) [A-40] | ≥ 75%
CCO/N=C(\C)c1cn(/C=C(\OC(=O)C(C)C)c2cc(F)ccc2OC)c(=O)n(C2CCCC2NC(=O)C(C)C)c1=O (centres unmarked) [A-44] | ≥ 75%
COc1ccc(F)cc1C(Cn1cc(C=NOC(C)C)c(=O)n(C(C)C(=O)N2CCSCC2)c1=O)OCCC#N (centres unmarked) [A-67] | ≥ 75%
COc1ccc(F)cc1C(O)Cn1cc(C=NOC(C)C)c(=O)n(C(C)C(=O)N2CCSCC2)c1=O (centres unmarked) [A-72] | ≥ 75%
COc1ccc(F)cc1C(O)Cn1cc(/C=N\OC(C)C)c(=O)n(CC(=O)N2CCCCC2)c1=O (centres unmarked) [A-83] | ≥ 75%
COc1ccc(F)cc1C(O)Cn1cc(C=NOC(C)C)c(=O)n(CC(=O)NC(C)C)c1=O (centres unmarked) [A-85] | ≥ 75%
COc1ccc(F)cc1C(O)Cn1cc(C=NOC(C)C)c(=O)n(C(C)C(=O)NC2CC2)c1=O (centres unmarked) [A-87] | ≥ 75%
COc1ccc(F)cc1C(Cn1cc(C=NOC(C)(C)C)c(=O)n(C(C)C(=O)NC(C)C)c1=O)OCCC#N (centres unmarked) [A-98] | ≥ 75%
CCON=Cc1cn(CCc2ccccc2OC)c(=O)n(C(C)C(=O)OCC)c1=O (centres unmarked) [A-103] | ≥ 75%
CCON=Cc1cn(CCc2ccccc2OC)c(=O)n(C(C)C(=O)N2CCCC2)c1=O (centres unmarked) [A-104] | ≥ 75%
CCON=Cc1cn(CCc2ccccc2OC)c(=O)n(C(C)C(=O)NC(C)C)c1=O (centres unmarked) [A-107] | ≥ 75%
CCCn1c(=O)c(/C(C)=N/OC(C)C)cn(CC(O)c2cc(F)ccc2OC)c1=O (centres unmarked) [B-7] | ≥ 75%
COc1ccccc1CCn1cc(/C(N)=N/OC(C)C)c(=O)n(CCc2ccccc2OC)c1=O [B-8] | ≥ 75%
CCO/N=C(\N)c1cn(CCc2ccccc2OC)c(=O)n(CCc2ccccc2OC)c1=O [B-9] | ≥ 75%
